According to ChEMBL document CHEMBL1146891, “Preparation of 1-(3-aminobenzo[d]isoxazol-5-yl)-1H-pyrazolo[4,3-d]pyrimidin-7(6H)-ones as potent, selective, and efficacious inhibitors of coagulation factor Xa” (Bioorg Med Chem Lett, 2006):
pKi: −log10 of the molar value.

Assays:
[1] = Stability at pH 4.0; type: physicochemical; conditions: buffer
Chymotrypsinogen B = Chymotrypsinogen B (Homo sapiens, UniProt P17538); assay: Binding affinity to human chymotrypsin
Coagulation factor X [2] = molecular target: T1, Coagulation factor X (Oryctolagus cuniculus, UniProt O19045); assay: Binding affinity to rabbit f10a
T1 sequence (O19045 whole entry): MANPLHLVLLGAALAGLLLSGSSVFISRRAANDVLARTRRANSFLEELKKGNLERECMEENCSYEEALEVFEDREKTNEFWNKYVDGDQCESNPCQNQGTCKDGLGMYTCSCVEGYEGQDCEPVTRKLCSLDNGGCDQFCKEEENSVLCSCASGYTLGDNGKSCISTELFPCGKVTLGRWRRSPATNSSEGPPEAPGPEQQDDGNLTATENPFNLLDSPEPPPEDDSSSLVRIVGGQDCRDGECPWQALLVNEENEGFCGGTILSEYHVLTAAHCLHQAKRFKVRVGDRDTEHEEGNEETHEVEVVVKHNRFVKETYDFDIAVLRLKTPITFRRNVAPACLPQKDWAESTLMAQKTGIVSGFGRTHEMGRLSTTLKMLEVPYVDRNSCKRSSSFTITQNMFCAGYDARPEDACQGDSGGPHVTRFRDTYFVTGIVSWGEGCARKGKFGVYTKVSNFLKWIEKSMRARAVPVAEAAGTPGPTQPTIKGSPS

Prothrombin = Prothrombin (Homo sapiens, UniProt P00734); assay: Binding affinity to human thrombin
[3] = Stability at pH 1.0; type: physicochemical; conditions: buffer
Coagulation factor X [4] = molecular target: Coagulation factor X (Homo sapiens, UniProt P00742); assay: Binding affinity to human f10a
[5] = molecular target: Vitamin K-dependent protein C (Homo sapiens, UniProt P04070); assay: Binding affinity to human activated protein C
Coagulation factor IX = Coagulation factor IX (Homo sapiens, UniProt P00740); assay: Binding affinity to human f9a
[6] = molecular target: Urokinase-type plasminogen activator (Homo sapiens, UniProt P00749); assay: Binding affinity to human urokinase
[7] = molecular target: Tissue-type plasminogen activator (Homo sapiens, UniProt P00750); assay: Binding affinity to human tPA
Trypsin = Trypsin (Homo sapiens, UniProt P07477+P07478+P35030); assay: Binding affinity to human trypsin; type: protein assay
Oryctolagus cuniculus = assay: Inhibition of thrombus formation in iv dosed rabbit arterio-venous shunt model; type: functional, organism-based
Plasminogen = Plasminogen (Homo sapiens, UniProt P00747); assay: Binding affinity to human plasmin
Plasminogen, sequence (P00747 97-580 limits assumed): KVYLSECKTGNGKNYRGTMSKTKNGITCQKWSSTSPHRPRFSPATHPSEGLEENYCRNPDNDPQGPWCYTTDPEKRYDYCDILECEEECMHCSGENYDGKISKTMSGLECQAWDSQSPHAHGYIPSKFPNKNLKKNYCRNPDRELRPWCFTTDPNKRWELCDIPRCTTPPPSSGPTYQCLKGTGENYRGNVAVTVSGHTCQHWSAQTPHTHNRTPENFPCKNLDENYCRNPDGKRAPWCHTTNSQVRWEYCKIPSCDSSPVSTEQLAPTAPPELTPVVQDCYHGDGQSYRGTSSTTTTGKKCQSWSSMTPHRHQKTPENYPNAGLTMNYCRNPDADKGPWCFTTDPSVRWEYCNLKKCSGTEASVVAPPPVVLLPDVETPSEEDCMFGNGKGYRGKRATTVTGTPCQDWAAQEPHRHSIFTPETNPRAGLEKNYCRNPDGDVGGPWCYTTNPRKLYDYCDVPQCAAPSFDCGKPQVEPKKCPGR
Plasminogen, sequence (P00747 581-810 limits assumed): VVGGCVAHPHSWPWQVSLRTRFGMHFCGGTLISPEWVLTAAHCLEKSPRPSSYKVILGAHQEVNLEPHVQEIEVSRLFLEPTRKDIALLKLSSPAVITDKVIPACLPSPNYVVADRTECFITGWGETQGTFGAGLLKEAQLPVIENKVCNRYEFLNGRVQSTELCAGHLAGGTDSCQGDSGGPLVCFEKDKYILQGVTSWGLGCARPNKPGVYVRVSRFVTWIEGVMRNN

Coagulation factor X (Homo sapiens, UniProt P00742), sequence (P00742 41-179 limits assumed): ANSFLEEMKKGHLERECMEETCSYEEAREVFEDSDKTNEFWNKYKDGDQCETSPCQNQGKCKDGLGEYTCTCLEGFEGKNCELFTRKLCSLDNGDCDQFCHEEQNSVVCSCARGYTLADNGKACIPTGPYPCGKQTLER
Coagulation factor X (Homo sapiens, UniProt P00742), sequence (P00742 235-488 limits assumed): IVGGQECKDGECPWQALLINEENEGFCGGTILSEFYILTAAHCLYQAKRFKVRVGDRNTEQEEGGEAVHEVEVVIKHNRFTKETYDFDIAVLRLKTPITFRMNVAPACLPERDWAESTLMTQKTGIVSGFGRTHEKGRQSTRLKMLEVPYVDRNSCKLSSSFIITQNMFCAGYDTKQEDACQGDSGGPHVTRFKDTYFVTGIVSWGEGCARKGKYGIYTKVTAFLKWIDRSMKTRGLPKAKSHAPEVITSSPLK
Vitamin K-dependent protein C, sequence (P04070 43-197 limits assumed): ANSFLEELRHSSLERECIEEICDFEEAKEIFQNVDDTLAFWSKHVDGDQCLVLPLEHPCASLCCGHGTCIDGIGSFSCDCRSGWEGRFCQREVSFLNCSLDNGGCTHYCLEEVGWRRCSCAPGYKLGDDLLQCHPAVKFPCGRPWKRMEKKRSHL
Vitamin K-dependent protein C, sequence (P04070 212-461 limits assumed): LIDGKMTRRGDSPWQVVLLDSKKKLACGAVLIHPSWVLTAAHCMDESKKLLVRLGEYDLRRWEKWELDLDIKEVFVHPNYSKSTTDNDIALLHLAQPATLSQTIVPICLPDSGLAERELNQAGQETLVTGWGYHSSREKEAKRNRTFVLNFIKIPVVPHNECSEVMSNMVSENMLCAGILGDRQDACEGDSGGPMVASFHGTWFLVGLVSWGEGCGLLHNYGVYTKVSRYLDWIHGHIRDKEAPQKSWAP
Coagulation factor IX, sequence (P00740 47-191 limits assumed): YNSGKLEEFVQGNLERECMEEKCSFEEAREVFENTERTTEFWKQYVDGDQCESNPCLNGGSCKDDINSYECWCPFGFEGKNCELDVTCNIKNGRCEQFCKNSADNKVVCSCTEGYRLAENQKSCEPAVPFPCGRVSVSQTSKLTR
Coagulation factor IX, sequence (P00740 227-461 limits assumed): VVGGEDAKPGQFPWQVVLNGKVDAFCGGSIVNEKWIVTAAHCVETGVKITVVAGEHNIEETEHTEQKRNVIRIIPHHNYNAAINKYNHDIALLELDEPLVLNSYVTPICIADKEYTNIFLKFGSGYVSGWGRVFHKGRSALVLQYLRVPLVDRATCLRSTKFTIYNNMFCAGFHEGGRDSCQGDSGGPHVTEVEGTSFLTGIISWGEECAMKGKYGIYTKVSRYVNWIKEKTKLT
Tissue-type plasminogen activator, sequence (P00750 whole entry): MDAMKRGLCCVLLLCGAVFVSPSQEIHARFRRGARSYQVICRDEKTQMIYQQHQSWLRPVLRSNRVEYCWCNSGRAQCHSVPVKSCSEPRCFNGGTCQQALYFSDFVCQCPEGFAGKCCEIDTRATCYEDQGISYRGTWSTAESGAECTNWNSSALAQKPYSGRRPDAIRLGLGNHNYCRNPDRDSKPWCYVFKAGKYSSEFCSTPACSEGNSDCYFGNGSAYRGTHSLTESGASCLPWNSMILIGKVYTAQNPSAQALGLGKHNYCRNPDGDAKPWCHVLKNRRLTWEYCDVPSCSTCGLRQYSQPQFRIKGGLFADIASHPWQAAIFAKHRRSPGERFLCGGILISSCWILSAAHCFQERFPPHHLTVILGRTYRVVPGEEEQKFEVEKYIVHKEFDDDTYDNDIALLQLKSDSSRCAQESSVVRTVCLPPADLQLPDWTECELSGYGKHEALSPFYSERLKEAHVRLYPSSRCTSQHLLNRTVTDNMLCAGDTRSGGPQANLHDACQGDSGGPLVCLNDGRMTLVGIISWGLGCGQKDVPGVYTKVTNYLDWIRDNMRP
Chymotrypsinogen B, sequence (P17538 34-164 limits assumed, other chains not shown): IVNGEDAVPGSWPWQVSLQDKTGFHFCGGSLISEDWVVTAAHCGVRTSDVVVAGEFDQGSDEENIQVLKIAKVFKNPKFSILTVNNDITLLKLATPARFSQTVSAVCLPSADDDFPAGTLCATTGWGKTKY
Chymotrypsinogen B, sequence (P17538 167-263 limits assumed, other chains not shown): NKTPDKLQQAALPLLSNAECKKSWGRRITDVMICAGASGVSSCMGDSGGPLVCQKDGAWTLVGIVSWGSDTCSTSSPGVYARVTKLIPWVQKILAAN

Cc1nn(-c2ccc3onc(N)c3c2)c2c(=O)n(-c3ccc(-c4ccccc4CN(C)C)cc3)c(C)nc12
Stability [1]: 94.7% | pKi (Chymotrypsinogen B): 6.02 | pKi (Coagulation factor X [2]): 9.52 | pKi (Prothrombin): 6.52 | Stability [3]: 89.7% | pKi (Coagulation factor X [4]): 9.57 | pKi [5]: 4.72 | pKi (Coagulation factor IX): < 4.39 | pKi [6]: < 4.89 | pKi [7]: 4.64 | Ki (Trypsin): > 4200 nM | ID50 (Oryctolagus cuniculus): 2 µmol/kg/h | pKi (Plasminogen): < 4.82
